For data set [1], the target named is Maltase-glucoamylase (Homo sapiens) (UniProt O43451). Nature of the data set: Inhibition of alpha-glucosidase (unknown origin) using pNPG as substrate at 64 uM preincubated with enzyme for 15 mins followed by substrate addition and measured after 10 mins by microplate reader analysis. The following applies: time 25.0 min.
Data set [2] is described as follows: Cytotoxicity against human L02 cells assessed as cell viability at 64 uM by CCK8 assay. Type of data set: toxicity, cell-based. The following applies: read-out: Activity.
Data set [3] addresses Maltase-glucoamylase (Homo sapiens) (UniProt O43451). The data set is described as follows: Competitive inhibition of alpha-glucosidase (unknown origin) using pNPG as substrate preincubated with enzyme for 15 mins followed by substrate addition and measured for 15 mins by Lineweaver-Burk plot analysis. The conditions noted are these: time 30.0 min.
The target is the same in data set [4]. Nature of the data set: Non-competitive inhibition of alpha-glucosidase (unknown origin) using pNPG as substrate preincubated with enzyme for 15 mins followed by substrate addition and measured for 15 mins by Lineweaver-Burk plot analysis. The conditions noted are these: time 30.0 min.
The target is the same in data set [5]. The data set is described as follows: Reversible inhibition of alpha-glucosidase (unknown origin) using pNPG as substrate assessed as reduction in velocity of enzyme-catalyzed reaction.

These results are taken from ChEMBL document CHEMBL5236583, “Semisynthesis, biological activities, and mechanism studies of Mannich base analogues of magnolol/honokiol as potential α-glucosidase inhibitors” (Bioorg Med Chem, 2022).

Active and inactive are the calls of the source. No cut-off for these calls is given here. Where only a bound is given, the exact number is not on record here.

Maltase-glucoamylase (Homo sapiens), sequence (O43451 whole entry, looked up): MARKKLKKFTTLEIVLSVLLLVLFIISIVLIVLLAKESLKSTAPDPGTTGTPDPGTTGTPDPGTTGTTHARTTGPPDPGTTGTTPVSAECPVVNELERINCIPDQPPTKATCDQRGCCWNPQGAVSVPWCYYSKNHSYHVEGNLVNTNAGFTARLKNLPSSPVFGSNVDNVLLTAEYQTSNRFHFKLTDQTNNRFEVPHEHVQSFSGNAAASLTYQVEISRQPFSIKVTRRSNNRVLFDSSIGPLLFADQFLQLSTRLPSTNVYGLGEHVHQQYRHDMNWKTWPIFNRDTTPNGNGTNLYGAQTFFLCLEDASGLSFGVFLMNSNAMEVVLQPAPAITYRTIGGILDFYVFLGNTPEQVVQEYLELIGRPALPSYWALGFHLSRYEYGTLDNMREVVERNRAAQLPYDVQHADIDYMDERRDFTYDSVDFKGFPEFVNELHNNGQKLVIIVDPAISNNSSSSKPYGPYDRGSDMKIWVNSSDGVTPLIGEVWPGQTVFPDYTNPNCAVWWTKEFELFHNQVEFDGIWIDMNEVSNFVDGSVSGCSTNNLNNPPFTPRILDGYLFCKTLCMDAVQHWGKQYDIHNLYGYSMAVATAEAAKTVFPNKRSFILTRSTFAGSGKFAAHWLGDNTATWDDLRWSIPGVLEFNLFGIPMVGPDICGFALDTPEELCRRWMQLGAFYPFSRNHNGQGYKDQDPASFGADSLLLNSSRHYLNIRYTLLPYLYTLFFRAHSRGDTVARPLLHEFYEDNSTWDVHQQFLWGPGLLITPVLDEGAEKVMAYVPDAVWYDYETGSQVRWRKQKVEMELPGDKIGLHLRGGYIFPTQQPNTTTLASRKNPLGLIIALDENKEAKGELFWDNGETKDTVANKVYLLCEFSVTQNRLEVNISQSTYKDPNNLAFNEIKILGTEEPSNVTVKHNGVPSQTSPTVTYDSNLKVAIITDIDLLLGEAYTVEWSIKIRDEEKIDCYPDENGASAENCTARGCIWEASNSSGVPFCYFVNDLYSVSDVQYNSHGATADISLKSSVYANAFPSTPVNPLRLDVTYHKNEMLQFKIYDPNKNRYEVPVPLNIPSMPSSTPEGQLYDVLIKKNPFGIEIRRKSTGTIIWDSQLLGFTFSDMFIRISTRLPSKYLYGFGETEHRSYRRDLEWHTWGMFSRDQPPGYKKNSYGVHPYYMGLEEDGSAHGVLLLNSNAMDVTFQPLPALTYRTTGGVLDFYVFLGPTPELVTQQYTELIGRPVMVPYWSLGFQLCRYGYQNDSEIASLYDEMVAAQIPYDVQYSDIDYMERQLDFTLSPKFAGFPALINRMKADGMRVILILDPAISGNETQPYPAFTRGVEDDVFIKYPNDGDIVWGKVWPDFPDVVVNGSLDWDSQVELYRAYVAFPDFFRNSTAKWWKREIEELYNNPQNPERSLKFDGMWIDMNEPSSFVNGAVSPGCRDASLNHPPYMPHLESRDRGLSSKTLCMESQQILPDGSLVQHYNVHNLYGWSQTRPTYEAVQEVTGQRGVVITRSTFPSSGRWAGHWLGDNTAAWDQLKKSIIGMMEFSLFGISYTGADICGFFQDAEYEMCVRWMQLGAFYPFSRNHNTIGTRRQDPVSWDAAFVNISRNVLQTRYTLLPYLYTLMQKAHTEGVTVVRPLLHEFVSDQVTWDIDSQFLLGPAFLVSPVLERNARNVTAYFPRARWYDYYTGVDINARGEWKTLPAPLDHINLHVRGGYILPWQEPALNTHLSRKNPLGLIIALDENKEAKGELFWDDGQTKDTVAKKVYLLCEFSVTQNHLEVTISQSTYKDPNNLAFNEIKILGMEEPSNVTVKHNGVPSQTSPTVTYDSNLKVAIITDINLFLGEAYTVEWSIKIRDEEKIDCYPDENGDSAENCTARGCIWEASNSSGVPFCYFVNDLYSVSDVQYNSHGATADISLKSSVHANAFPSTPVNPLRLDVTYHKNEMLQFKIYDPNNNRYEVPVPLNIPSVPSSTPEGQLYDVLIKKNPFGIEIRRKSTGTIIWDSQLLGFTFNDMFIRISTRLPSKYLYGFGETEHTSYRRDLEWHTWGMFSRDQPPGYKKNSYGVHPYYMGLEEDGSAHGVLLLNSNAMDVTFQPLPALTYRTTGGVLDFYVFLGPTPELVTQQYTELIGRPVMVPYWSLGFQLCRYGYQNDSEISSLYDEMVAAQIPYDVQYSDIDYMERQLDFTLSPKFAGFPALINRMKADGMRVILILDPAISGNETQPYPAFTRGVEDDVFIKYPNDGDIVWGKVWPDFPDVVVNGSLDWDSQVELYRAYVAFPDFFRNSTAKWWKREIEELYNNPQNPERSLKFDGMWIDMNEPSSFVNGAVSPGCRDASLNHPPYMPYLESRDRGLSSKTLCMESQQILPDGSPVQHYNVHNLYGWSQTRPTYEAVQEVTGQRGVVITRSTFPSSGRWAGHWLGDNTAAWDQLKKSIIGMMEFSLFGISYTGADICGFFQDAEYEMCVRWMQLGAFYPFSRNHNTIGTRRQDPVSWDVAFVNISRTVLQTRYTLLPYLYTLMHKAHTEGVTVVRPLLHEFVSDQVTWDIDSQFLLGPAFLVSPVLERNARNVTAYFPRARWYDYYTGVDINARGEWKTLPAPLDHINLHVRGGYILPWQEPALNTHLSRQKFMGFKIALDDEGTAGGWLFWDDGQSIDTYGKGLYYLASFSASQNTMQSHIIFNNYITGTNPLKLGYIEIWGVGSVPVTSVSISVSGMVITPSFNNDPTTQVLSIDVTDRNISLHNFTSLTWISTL

`C=CCc1ccc(O)c(-c2cc(CC=C)cc(CN(CCC)CCC)c2O)c1` returned an inhibition in data set [1] of 6.3%. Still for that read-out and setting: next, `C=CCc1cc(CN(C)C(C)C)c(O)c(-c2cc(CC=C)c(O)c(CN(C)C(C)C)c2)c1`: 4.1%; `C=CCc1ccc(O)c(-c2cc(CC=C)ccc2O)c1`: 9.6%. With `C=CCc1cc(-c2ccc(O)c(CC=C)c2)c(O)c(C(c2cc(Cl)cc(Cl)c2)N2CCCCC2)c1` (stereo not drawn), the viability at 64 µM in data set [2] is greater than 80%. In data set [1], the inhibition came to 87.7%.

Take `C=CCc1cc(-c2ccc(O)c(CC=C)c2)c(O)c(C(c2ccc(Cl)cc2)N2CCCCC2)c1` (stereo not drawn): the inhibition in data set [1] stood at 45%. Still for that read-out and setting: next, `C=CCc1ccc(O)c(-c2cc(CC=C)cc(CN(C)c3ccccc3)c2O)c1`: 15.5%.

With `C=CCc1cc(-c2cc(CC=C)c(O)c(C(c3ccc(Cl)cc3)N3CCOCC3)c2)c(O)c(C(c2ccc(Cl)cc2)N2CCOCC2)c1` (stereo not drawn), the viability at 64 µM in data set [2] is greater than 80%. Also, the inhibition in data set [1] is 80.1%. On to `C=CCc1cc(CN(C(C)C)C(C)C)c(O)c(-c2cc(CC=C)c(O)c(CN(C(C)C)C(C)C)c2)c1`, for which the inhibition in data set [1] amounted to 7.2%. The compound `C=CCc1cc(-c2ccc(O)c(CC=C)c2)c(O)c(C(c2ccc(OC)cc2)N2CCOCC2)c1` (stereo not drawn) displayed an inhibition in data set [1] of 6.2%. For the compound `C=CCc1cc(-c2ccc(O)c(CC=C)c2)c(O)c(C(c2ccccc2)N2CCCCC2)c1` (stereo not drawn), the inhibition in data set [1] amounted to 13.6%. The same measure, in the same setting: with `C=CCc1cc(CN(CCC)CCC)c(O)c(-c2cc(CC=C)c(O)c(CN(CCC)CCC)c2)c1` the figure was 4.8%. As for `C=CCc1cc(-c2ccc(O)c(CC=C)c2)c(O)c(C(c2ccc(OC)cc2)N2CCCCC2)c1` (stereo not drawn), in data set [2], the viability at 64 µM is greater than 80%. This compound also had an inhibition in data set [1] of 85%. In turn, `C=CCc1ccc(O)c(-c2cc(CC=C)cc(CN3CCN(C)CC3)c2O)c1` returned an inhibition in data set [1] of 9.4%. Compound `C=CCc1cc(-c2ccc(O)c(CC=C)c2)c(O)c(C(c2cc(OC)c(OC)c(OC)c2)N2CCCCC2)c1` (stereo not drawn) yielded an inhibition in data set [1] of 56.4%. Still for that read-out and setting: with `C=CCc1cc(CN(C)c2ccccc2)c(O)c(-c2cc(CC=C)c(O)c(CN(C)c3ccccc3)c2)c1` the figure was 63%; with `C=CCc1cc(-c2ccc(O)c(CC=C)c2)c(O)c(C(c2cc(OC)c(OC)c(OC)c2)N2CCCC2)c1` (stereo not drawn), 43%. Still for that read-out and setting: next, `C=CCc1cc(CN2CCC(C)CC2)c(O)c(-c2cc(CC=C)c(O)c(CN3CCC(C)CC3)c2)c1`: 6.5%.

In data set [1], `C=CCc1cc(CN2CCCC2)c(O)c(-c2cc(CC=C)c(O)c(CN3CCCC3)c2)c1` gave an inhibition of 4.7%.

For the compound `C=CCc1cc(CN2CCCCC2C)c(O)c(-c2cc(CC=C)c(O)c(CN3CCCCC3C)c2)c1` (stereo not drawn), the inhibition in data set [1] was 3.33%.

`C=CCc1ccc(O)c(-c2cc(CC=C)cc(CN3CCC(C)CC3)c2O)c1` returned an inhibition in data set [1] of 6.3%.

With `C[C@H]1O[C@H](O[C@H]2[C@H](O)[C@@H](O)[C@@H](O[C@H]3[C@H](O)[C@@H](O)C(O)O[C@@H]3CO)O[C@@H]2CO)[C@H](O)[C@@H](O)[C@@H]1N[C@H]1C=C(CO)[C@@H](O)[C@H](O)[C@H]1O` (stereo partly drawn), the inhibition result in data set [3] is “Active”. For the same compound, the inhibition in data set [1] is 99%. Take `C=CCc1cc(-c2ccc(O)c(CC=C)c2)c(O)c(C(c2cc(Cl)cc(Cl)c2)N2CCC(C)CC2)c1` (stereo not drawn): the inhibition entry in data set [4] and in data set [5] was “Active” in each case. The viability at 64 µM in data set [2] is greater than 80%. In data set [1], this compound registered an inhibition of 97.5%.

Turning to `C=CCc1cc(-c2ccc(O)c(CC=C)c2)c(O)c(C(c2ccc(Cl)cc2)N2CCC(C)CC2)c1` (stereo not drawn), the inhibition in data set [1] is 8.6%.

For `C=CCc1ccc(O)c(-c2cc(CC=C)cc(CN(C)C(C)C)c2O)c1`, the inhibition in data set [1] was determined as 3.4%. As to `C=CCc1cc(-c2cc(CC=C)c(O)c(C(c3ccc(OC)cc3)N3CCC(C)CC3)c2)c(O)c(C(c2ccc(OC)cc2)N2CCC(C)CC2)c1` (stereo not drawn), the inhibition in data set [1] turned out to be 27.8%. The same measure, in the same setting: with `C=CCc1ccc(O)c(-c2cc(CC=C)cc(CN(CC(C)C)CC(C)C)c2O)c1` the figure was 3.8%. The same measure, in the same setting: with `C=CCc1cc(-c2ccc(O)c(CC=C)c2)c(O)c(C(c2ccc(Cl)cc2)N2CCCC2)c1` (stereo not drawn) the figure was 40.6%; with `C=CCc1cc(CN(CC(C)C)CC(C)C)c(O)c(-c2cc(CC=C)c(O)c(CN(CC(C)C)CC(C)C)c2)c1`, 6.2%; with `C=CCc1cc(-c2ccc(O)c(CC=C)c2)c(O)c(C(c2ccccc2)N2CCC(C)CC2)c1` (stereo not drawn), 25.8%. On the same count and under the same terms, next, `C=CCc1ccc(O)c(-c2ccc(O)c(CC=C)c2)c1`: 30.6%; `C=CCc1cc(CN(CCCC)CCCC)c(O)c(-c2cc(CC=C)c(O)c(CN(CCCC)CCCC)c2)c1`: 4.7%. On to `C=CCc1cc(-c2ccc(O)c(CC=C)c2)c(O)c(C(c2cc(Cl)cc(Cl)c2)N2CCOCC2)c1` (stereo not drawn), for which the inhibition entry in data set [4] and in data set [5] was “Active” in each case. Besides, in data set [2], the viability at 64 µM was greater than 80%. This compound also showed an inhibition in data set [1] of 92.6%. For `C=CCc1ccc(O)c(-c2cc(CC=C)cc(CN(CCCC)CCCC)c2O)c1`, the inhibition in data set [1] stood at 8.2%.

The inhibition is the change of the read-out against control, counted positive when it falls.
